This passage reports EC50 results from patent US12077506B2, “Indane derivatives as hypoxia inducible factor-2(α) inhibitors” (priority 2019, dated 2024).

The target in the first test is HIF-2α (Homo sapiens (Human), UniProt Q99814). In words: VEGF ELISA Assay. It is filed as cell-based.
Sequence of HIF-2α (Q99814 whole entry): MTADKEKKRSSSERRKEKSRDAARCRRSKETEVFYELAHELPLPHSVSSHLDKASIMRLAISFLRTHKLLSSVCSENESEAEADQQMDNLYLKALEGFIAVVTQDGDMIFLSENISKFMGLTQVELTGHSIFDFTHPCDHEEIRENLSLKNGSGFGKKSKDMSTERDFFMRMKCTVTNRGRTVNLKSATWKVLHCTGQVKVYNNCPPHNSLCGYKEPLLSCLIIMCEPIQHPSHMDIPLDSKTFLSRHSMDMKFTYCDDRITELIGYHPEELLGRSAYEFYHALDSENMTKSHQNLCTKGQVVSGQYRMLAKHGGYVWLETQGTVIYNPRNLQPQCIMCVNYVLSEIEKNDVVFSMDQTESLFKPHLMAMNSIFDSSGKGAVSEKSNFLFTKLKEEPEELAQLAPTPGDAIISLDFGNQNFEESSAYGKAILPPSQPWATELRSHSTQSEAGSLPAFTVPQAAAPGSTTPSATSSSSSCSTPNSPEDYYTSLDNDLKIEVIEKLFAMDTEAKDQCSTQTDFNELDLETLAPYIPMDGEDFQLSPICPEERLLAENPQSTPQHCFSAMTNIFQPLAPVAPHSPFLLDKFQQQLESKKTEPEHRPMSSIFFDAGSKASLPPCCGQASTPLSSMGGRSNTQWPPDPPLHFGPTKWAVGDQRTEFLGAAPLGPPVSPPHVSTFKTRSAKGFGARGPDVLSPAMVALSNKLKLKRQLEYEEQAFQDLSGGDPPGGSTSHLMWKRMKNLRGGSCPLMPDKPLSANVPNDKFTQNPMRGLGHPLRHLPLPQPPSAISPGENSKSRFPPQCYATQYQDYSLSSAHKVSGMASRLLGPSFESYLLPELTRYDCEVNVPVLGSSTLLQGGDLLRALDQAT
Settings: not given
Here is the method:
The ability of the disclosed compounds to inhibit HIF-2α was measured by determining VEGF expression in 786-O cells. About 7500 786-O cells were seeded into each well of a 96-well, white, clear bottom plate (07-200-566, Fisher Scientific) with 200 ul growth medium. Four hours later, compounds were dispensed into wells by Tecan D300e digital dispenser with starting concentration of 10 uM and ½ log of dilution down to 1 nM as final concentration. Each concentration of treatment was performed in duplicate. About 20 hours later, medium was removed and fresh medium was added, followed by compounds treatment as described above. After 24 hours, cell culture medium was collected to determine VEGF concentration using an ELISA kit (R&D systems, cat #DVE00) following the manufacturer's instruction.
The EC50 was calculated by GraphPad Prism using the dose-response-inhibition (four parameter) equation. The plate with cells was then subjected to CellTiter-Glo luminescence cell viability assay (Promega) to determine the effect of these compounds on cell numbers after the above treatment.
For the compound `[2H][C@]1(O)c2c(ccc(Oc3cc(F)cc(C#N)c3)c2C#N)C(F)(F)C1(F)F` [I-13a, (S)-5-(3-cyano-5-fluorophenoxy)-1,1,2,2-tetrafluoro-3-hydroxy-2,3-dihydro-1H-indene-4-carbonitrile-3-d], the EC50 was found to be 464 nM.
Still for that read-out and setting: under `[2H]C1(O)c2c(ccc(Oc3cncc(F)c3)c2C#N)C(F)(F)C1(F)F` (stereo not shown) [I-14, 1,1,2,2-tetrafluoro-5-((5-fluoropyridin-3-yl)oxy)-3-hydroxy-2,3-dihydro-1H-indene-4-carbonitrile-3-d] stands 183 nM; under `[2H][C@@]1(O)c2c(ccc(Oc3cc(F)cc(C#N)c3)c2C#N)C(F)(F)C1(F)F` [I-13b, (R)-5-(3-cyano-5-fluorophenoxy)-1,1,2,2-tetrafluoro-3-hydroxy-2,3-dihydro-1H-indene-4-carbonitrile-3-d], 12 nM.

Still in this test, the particulars now being: VEGF expression in 786-O cells, ELISA of culture medium; read-out: EC50.
`CC1(O)c2c(ccc(Oc3cc(F)cc(C#N)c3)c2C#N)C(F)(F)C1(F)F` (stereo not shown) [I-15, 5-(3-cyano-5-fluorophenoxy)-1,1,2,2-tetrafluoro-3-hydroxy-3-methyl-2,3-dihydro-1H-indene-4-carbonitrile]: the EC50 worked out at 287 nM.
Still for that read-out and setting: under `N#Cc1cc(Cl)cc(Oc2ccc3c(c2C(F)F)C(O)C(F)(F)C3(F)F)c1` (stereo not shown) [I-6, 3-chloro-5-((4-(difluoromethyl)-1,1,2,2-tetrafluoro-3-hydroxy-2,3-dihydro-1H-inden-5-yl)oxy)benzonitrile] stands 27 nM; under `OC1c2c(ccc(OC3CC(F)(F)C3)c2C(F)F)C(F)(F)C1(F)F` (stereo not shown) [I-8, 6-(3,3-difluorocyclobutoxy)-7-(difluoromethyl)-2,2,3,3-tetrafluoro-2,3-dihydro-1H-inden-1-ol], 105 nM; under `CCc1c(Oc2cc(F)cc(C#N)c2)ccc2c1C(C)(O)C(F)(F)C2(F)F` (stereo not shown) [I-18, 3-((4-ethyl-1,1,2,2-tetrafluoro-3-hydroxy-3-methyl-2,3-dihydro-1H-inden-5-yl)oxy)-5-fluorobenzonitrile], 2500 nM.
Turning to `N#Cc1cc(F)cc(Oc2ccc3c(c2C(F)F)C(O)C(F)(F)C3(F)F)c1` (stereo not shown) [I-1, 3-((4-(difluoromethyl)-1,1,2,2-tetrafluoro-3-hydroxy-2,3-dihydro-1H-inden-5-yl)oxy)-5-fluorobenzonitrile], the concentration giving a half-maximal response (EC50) stood at 6 nM.
The same measure, in the same setting: under `N#Cc1cc(F)cc(Oc2ccc3c(c2C(F)F)C(O)C(F)(Cl)C3(F)F)c1` (stereo not shown) [I-20, 3-((2-chloro-4-(difluoromethyl)-1,1,2-trifluoro-3-hydroxy-2,3-dihydro-1H-inden-5-yl)oxy)-5-fluorobenzonitrile] stands 20 nM; under `N#Cc1cc(F)cc(Oc2ccc3c(c2C(F)F)C(O)C(F)(F)C3F)c1` (stereo not shown) [I-19, 3-((4-(difluoromethyl)-1,2,2-trifluoro-3-hydroxy-2,3-dihydro-1H-inden-5-yl)oxy)-5-fluorobenzonitrile], 151 nM; under `CC1(O)c2c(ccc(Oc3cc(F)cc(C#N)c3)c2C(F)F)C(F)(F)C1(F)F` (stereo not shown) [I-2, 3-((4-(difluoromethyl)-1,1,2,2-tetrafluoro-3-hydroxy-3-methyl-2,3-dihydro-1H-inden-5-yl)oxy)-5-fluorobenzonitrile], 770 nM.
Same read-out and setting: under `N#Cc1cc(F)cc(Oc2ccc3c(c2C(F)F)C(N)C(F)(F)C3(F)F)c1` (stereo not shown) [I-3, 3-((3-amino-4-(difluoromethyl)-1,1,2,2-tetrafluoro-2,3-dihydro-1H-inden-5-yl)oxy)-5-fluorobenzonitrile] stands 166 nM; under “7-(difluoromethyl)-6-(3,5-difluorophenoxy)-2,2,3,3-tetrafluoro-2,3-dihydro-1H-inden-1-ol [I-4]”, 4 nM; under `CC1(O)c2c(ccc(Oc3cc(F)cc(C#N)c3)c2Br)C(F)(F)C1(F)F` (stereo not shown) [I-16, 3-((4-bromo-1,1,2,2-tetrafluoro-3-hydroxy-3-methyl-2,3-dihydro-1H-inden-5-yl)oxy)-5-fluorobenzonitrile], 2070 nM.
Still for that read-out and setting: under `OC1c2c(ccc(Oc3cncc(F)c3)c2C(F)F)C(F)(F)C1(F)F` (stereo not shown) [I-10, 7-(difluoromethyl)-2,2,3,3-tetrafluoro-6-((5-fluoropyridin-3-yl)oxy)-2,3-dihydro-1H-inden-1-ol] stands 54 nM; under `N#Cc1cncc(Oc2ccc3c(c2C(F)F)C(O)C(F)(F)C3(F)F)c1` (stereo not shown) [I-9, 5-((4-(difluoromethyl)-1,1,2,2-tetrafluoro-3-hydroxy-2,3-dihydro-1H-inden-5-yl)oxy)nicotinonitrile], 147 nM.
Regarding `OC1c2c(ccc(Oc3cc(F)cc(Cl)c3)c2C(F)F)C(F)(F)C1(F)F` (stereo not shown) [I-7, 6-(3-chloro-5-fluorophenoxy)-7-(difluoromethyl)-2,2,3,3-tetrafluoro-2,3-dihydro-1H-inden-1-ol], the concentration for a half-maximal effect (EC50) was 8 nM.
On the same count and under the same terms, under `Cc1cc(C#N)cc(Oc2ccc3c(c2C(F)F)C(O)C(F)(F)C3(F)F)c1` (stereo not shown) [I-5, 3-((4-(difluoromethyl)-1,1,2,2-tetrafluoro-3-hydroxy-2,3-dihydro-1H-inden-5-yl)oxy)-5-methylbenzonitrile] stands 67 nM; under `C=Cc1c(Oc2cc(F)cc(C#N)c2)ccc2c1C(C)(O)C(F)(F)C2(F)F` (stereo not shown) [I-17, 3-fluoro-5-((1,1,2,2-tetrafluoro-3-hydroxy-3-methyl-4-vinyl-2,3-dihydro-1H-inden-5-yl)oxy)benzonitrile], 5770 nM.
